In patent US8852917B2, “Thuricin CD, an antimicrobial for specifically targeting Clostridium difficile” (University College Cork, priority 2007, dated 2014):
In brackets after ≈: the same amount, converted by molar mass. Entries after “also recorded” stand apart in the source; their conditions may differ. Where two headings read alike, the source gives them in different places. Values belong to the compound of their own block, whether it stands above or below them.

Assays:
[1] = test system: C. difficile ribotypes 001, 106 and 027; assay: Determination of minimum inhibitory concentrations; type: cell-based
[2] = test system: C. difficile DPC 6537 (PCR ribotype 001); assay: Model faecal fermentation; type: cell-based; conditions: 500 μg thuricin added at 0, 8, and 16 hr; spiked with 10^6 cfu C. difficile ribotype 001/ml; after 16 hr incubation
Procedure: C. difficile DPC 6537 (PCR Ribot e 001) was taken from −80° C. stock and streaked on Fastidious Anaerobic Agar and incubated anaerobically at 37° C. On the night before the experiment ˜1 colony was inoculated into 10 ml of RCM which has been previously boiled and cooled and incubated anaerobically at 37° C.
Faecal growth medium was prepared as described by Fooks and Gibson (2003) with minor modifications as follows. The ingredients were made up to 800 ml, the pH adjusted to 6.8. One hundred and sixty ml was added to each fermentation vessel and autoclaved at 121° C. for 15 min. Prior to inoculation the faecal medium was sparged with O2-free nitrogen for ˜1 h. A 20% faecal slurry was made from a fresh faecal sample in 50 mM phosphate buffer containing 0.05% cystein which has been previously boiled and cooled just prior to use and mixed using a stomacher for no longer than 1 min. Two fermentor vessels were inoculated with 35 ml of the slurry preparation and 2 ml of the overnight culture of C. difficile. […] Samples were also taken for analysis of thuricin activity using WDA and MALDI-TOF MS.
(§1) C. difficile was enumerated on CCEY agar (LabM) and Bifidobacterium sp. on modified MRS agar containing 0.05% cystein and 50 mg mupirocin/1 after 48 h and 72 h at 37° C. incubation respectively.

B. lactis Bb12 = type: cell-based
Bifidobacteria = assay: Model faecal fermentation; type: cell-based, Bifidobacterium sp.; conditions: up to 16 hr incubation
Procedure: Faecal growth medium was prepared as described by Fooks and Gibson (2003) with minor modifications as follows. The ingredients were made up to 800 ml, the pH adjusted to 6.8. One hundred and sixty ml was added to each fermentation vessel and autoclaved at 121° C. for 15 min. Prior to inoculation the faecal medium was sparged with O2-free nitrogen for ˜1 h. A 20% faecal slurry was made from a fresh faecal sample in 50 mM phosphate buffer containing 0.05% cystein which has been previously boiled and cooled just prior to use and mixed using a stomacher for no longer than 1 min. Two fermentor vessels were inoculated with 35 ml of the slurry preparation and 2 ml of the overnight culture of C. difficile. To the test vessel 1 ml of 100 mg/ml thuricin was added at 0, 8 and 16 h incubation and both vessels sampled at 0, 4, 8, 12, 16, 20 and 24 h for both microbiological analyses of C. difficile and Bifidobacteria sp. Samples were also taken for analysis of thuricin activity using WDA and MALDI-TOF MS.
as §1

[3] = Activity over a range of pH; type: physicochemical
Procedure: (§2) Activity over a range of pH was determined in CFS by adjusting pH from 2 to 9 using either 0.5M HCl or 1M NaOH. The effect of acid or base on the target organism was determined using uninoculated broth medium adjusted through the pH range. Activity was determined using WDA assay using C. difficile ATCC 43593 as the target strain. Heat sensitivity was determined by heating the CFS for 15 min at a range of temperatures from 37° C. to 100° C.; the control was incubated at 37° C. Activity was determined using WDA with C. difficile ATCC 43593 as the target organism.

bifidobacteria strains = type: cell-based
Gram negative organisms = type: cell-based; conditions: WDA
Procedure: B. thuringiensis DPC 6431 was grown aerobically from stock for ˜6 h in BHI broth and sub-cultured into fresh BHI at 0.1% for 18 h in BHI. Following growth, the culture was centrifuged twice at 8200 g for 10 min. Activity was determined using the well diffusion assay (WDA) as described by Ryan et al., (1996). Activity against a range of target organisms was determined by WDA. Cultures were grown over-night in various broth media and temperatures as outlined in Table 1. Twenty ml of the appropriate agar medium was inoculated with 100 μl of target organism and, once solidified, 50 μl of the cell free supernatant (CFS) of B. thuringiensis DPC 6431 was added to a well made in the agar. Plates were incubated under conditions appropriate for the various target organisms as outlined in Table 1. Zones of inhibition (mm) were measured and relative sensitivity determined by measuring the diameter of the zone. Zones of size ≦9 mm were designated +; of 10-15 mm were designated ++; of 16-21 mm were designated +++; of ≧22 mm were designated ++++;

[4] = Sensitivity to enzymatic degradation; type: in vitro ADME; conditions: FIG. 1; Proteinase K (6.5 mg/ml) applied to the edge of the well
Procedure: The cell free supernatant was tested for sensitivity to the following enzymes at a concentration of 25 mg/ml: pepsin, trypsin, peptidase, α-chymotrypsin type V111, α-chymotrypsin type 11 and proteinase K. All enzymes were purchased from Sigma. Cell free supernatants were incubated with the enzymes for 1 h at 37° C. Activity post enzyme treatment was determined using the well diffusion method using C. difficile ATCC 43593 as the target organism. Sensitivity of the antimicrobial to Proteinase K was also determined by applying 5 μl of Proteinase K (6.5 mg/ml) to the edge of the well containing the sample.

C. difficile = assay: Lysis of C. difficile by thuricin CD; type: cell-based
Procedure: The lytic effect of thuricin CD on C. difficile was carried out as described by Rea et at (2007).

Lb. casei 338 = type: cell-based
[5] = test system: L. monocytogenes NCTC 5348; type: cell-based
[6] = Stability in simulated gastric, ileal and colon juice; type: in vitro ADME; conditions: 37° C., 1 mg/ml, WDA
Procedure: Effect of simulated gastric, ileal and colon juice on stability of thuricin CD C. difficile 64539 was grown overnight and inoculated at 1.25% into Reinforced Clostridium Agar (RCA). Simulated gastric, ileal and colon juice were prepared as outlined by Breumer et al (1992). Purified thuricin CD was made up to 100 mg/ml in 70% IPA. Seventy μl (1 mg/ml final concentration) of thuricin was added to 7000 μl of porcine gastric and ileum juice and incubated at 37° C. At intervals samples were taken and activity was measured with the WDA using C. difficile seeded plates. The samples were also assayed for the presence of the Trn-α and Trn-β peptides using MALDI-TOF MS

Heat sensitivity = type: physicochemical
Procedure: as §2

C. difficile R027 NAP1 = assay: Kill curves; type: cell-based
Procedure: The effect of thuricin against C. difficile R027 NAP1, L. monocytogenes NCTC 5348, Lb. casei 338 and B. lactis Bb12 was determined in Reinforced Clostridium Medium (RCM Merck), Brain Heart Infusion broth (Merck), MRS (de Mann-Rogosa-Sharpe) medium (Difco) and MRS containing 0.05% cystein respectively. Three independent cultures were prepared for each strain and grown overnight at 37° C. Three replicate one ml volumes of sterile double strength broth medium was prepared for each strain and inoculated with the test organisms to give initial cell numbers of 10^5-10^6/ml. Thuricin was added to give the required concentration and the volume made up to 2 ml with sterile distilled water. The bacteriocin was omitted from the control and volume substituted with sterile water. Samples were removed at intervals, serially diluted and plated on RCA, BHI agar, MRS agar or MRS agar containing 0.05% cystein depending on the strain. Plates were counted after 24 h (L. monocytogenes), or 48 h (C. difficile, Lb. casei 338 and B. lactis Bb12) incubation at 37° C.

[7] = Stability in ex vivo porcine gastric and ileal juice; type: in vitro ADME; conditions: 37° C., 1 mg/ml, WDA
Procedure: Effect of ex vivo porcine gastric and ileal juice on the stability of the thuricin CD C. difficile 64539 was grown overnight and inoculated at 1.25% into Reinforced Clostridium Agar (RCA). Purified Thuricin CD was prepared as described above. Seven ml of porcine ileal and gastric juice was centrifuged for 15 min at 12,000 rpm to remove debris. Seventy μl (1 mg/ml) of thuricin was added to 7000 μl of porcine gastric and ileum juice and incubated at 37° C. At intervals samples were taken and activity was measured using the WDA and checked for the presence of the Trn-α and Trn-β peptides using MALDI-TOF MS.

[8] = test system: Lactobacillus and Bifidobacterium populations; conditions: simple faecal fermentations; concentrations required to kill C. difficile; cited from earlier work
[9] = C. difficile ribotype 001, 16 h at 37° C. anaerobically, read-out: MIC
[10] = C. difficile ribotype 106, 16 h at 37° C. anaerobically, read-out: MIC

- MIC ([1]; Clostridioides difficile, 16 h, C. difficile ribotype 001, 16 h at 37° C. anaerobically, read-out: MIC): 3.12 µM (≈ 0.535 µg/mL)
- MIC ([1]; Clostridioides difficile, 16 h, C. difficile ribotype 027, 16 h at 37° C. anaerobically, read-out: MIC): 3.12 µM (≈ 0.535 µg/mL)
- MIC ([1]; Clostridioides difficile, 16 h, C. difficile ribotype 106, 16 h at 37° C. anaerobically, read-out: MIC): 1.56 µM (≈ 0.267 µg/mL)
Compound: Cc1ncc([N+](=O)[O-])n1CCO [Metronidazole, metronidazole]

Compound: CN[C@H](CC(C)C)C(=O)N[C@H]1C(=O)N[C@@H](CC(N)=O)C(=O)N[C@H]2C(=O)N[C@H]3C(=O)N[C@H](C(=O)N[C@H](C(=O)O)c4cc(O)cc(O)c4-c4cc3ccc4O)[C@H](O)c3ccc(c(Cl)c3)Oc3cc2cc(c3O[C@@H]2O[C@H](CO)[C@@H](O)[C@H](O)[C@H]2O[C@H]2C[C@](C)(N)[C@H](O)[C@H](C)O2)Oc2ccc(cc2Cl)[C@H]1O [Vancomycin, vancomycin]
- MIC [1, 9]: 0.39 µM (≈ 0.565 µg/mL)
- MIC [1, 10]: 0.39 µM (≈ 0.565 µg/mL)
- MIC ([1]; Clostridioides difficile, 16 h): 0.39 µM (≈ 0.565 µg/mL)

Compound: Thuricin CD
- Reduction of C. difficile compared with the control [2]: over 1000 fold
- Effect on viability of B. lactis BB12 (B. lactis Bb12): no effect; also recorded: did not affect
- MIC [1, 9]: 0.097 µM
- MIC ([1]; C. difficile ribotype 027, 16 h at 37° C. anaerobically, read-out: MIC): 0.012 µM
- MIC [1, 10]: 0.125 µM
- Effect on numbers of Bifidobacteria relative to control (Bifidobacteria): did not affect
- pH range in which active [3]: 2-10
- Sensitivity of bifidobacteria strains tested (bifidobacteria strains): No bifidobacteria strains tested were sensitive
- Activity against Gram negative organisms tested (Gram negative organisms): no activity
- Activity on treatment with Proteinase K [4]: lost
- Effect on OD600 nm of logarithmically growing C. difficile (C. difficile): gradual reduction of OD600 nm
- Acetate kinase in the growth medium (lysis) (C. difficile; logarithmically growing C. difficile): release of the intracellular enzyme acetate kinase
- Effect on viability of Lb. casei 338 (Lb. casei 338): no effect; also recorded: did not affect
- Reduction of cell numbers of L. monocytogenes [5]: 1.5 log cycles
- Activity after incubation in simulated gastric juice ([6]; 2 hours): no reduction of activity
- Activity after incubation in simulated ileal juice ([6]; 4 hours): no reduction of activity
- Activity after incubation in simulated colon juice ([6]; 9 hours): no reduction of activity
- Activity after heating at 90° C. (Heat sensitivity): reduction of activity
- Activity after heating at 100° C. (Heat sensitivity): loss of activity
- Temperature up to which heat stable / activity retained (Heat sensitivity): up to 95 °C
- Temperature up to which heat-stable (Heat sensitivity): about 85 ° Centigrade
- Time within which approximately 5×10^6 CFU of C. difficile per ml are killed (C. difficile R027 NAP1; 5 μM): ≤ 60 minutes
- Time to reduce viable cells from ˜10^6/ml to zero (C. difficile R027 NAP1; 200 AU thuricin/ml, C. difficile PCR ribotype 027): ≤ 2 h
- Time within which approximately 5×10^6 CFU of C. difficile per ml are killed (C. difficile R027 NAP1; 200 AU/ml): ≤ 180 minutes
- Time within which ˜5×10^6 cfu of C. difficile per ml were killed (C. difficile R027 NAP1; 200 AU/ml): ≤ 180 min
- Activity after incubation in ex vivo porcine gastric juice ([7]; 2 hr): no reduction in activity
- Activity after incubation in ex vivo porcine ileal juice ([7]; 5 hr): no reduction in activity

Compound: lacticin 3147
- Effect on Lactobacillus and Bifidobacterium populations [8]: 3 log cycles
